Laboratory results reported in patent US10766869B2, “Triazoles for the treatment of demyelinating dieases” (Vertex Pharmaceuticals Incorporated, priority 2015, dated 2020).
Like-named read-outs stand apart in the source and are kept apart here.

How the values were obtained:
[1] = tested on: primary rat mixed cortical cells; assay: In vitro myelination assay (MBP positive myelin strands, fold myelin pixels above background); format: cell-based; conditions: Rattus norvegicus, relative to baseline of no added compound; for fold induction at 1 µM: 1.0 μM compound; for fold induction at 10 µM: 10.0 μM compound
How it was run: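 Fourteen-day treatment of primary P1 rat mixed cortical cultures, re-dosed at days 6 and 10, at 1.0 μM and 10.0 μM. MBP immunofluorescence was imaged at 10× and myelin strands quantified by software, normalised to untreated wells as fold above background.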

[2] = tested on: C57BL/6 mice demyelinated with cuprizone; assay: In vivo mouse cuprizone assay (new myelin, MBP positive / MOG negative area); conditions: for effect measured as new myelin generated in response to compound treatment compared to control with no added compound: Regimen A (QD or BID for 14 days via oral gavage), various doses; for effect (new myelin generated compared to control): Regimen A, oral gavage
From the text: Assays for Detecting and Measuring Remyelination Properties of Compounds In Vivo Mouse Cuprizone Assay:
Cuprizone Feeding Protocol:
2 month old female C57BL/6 mice (Stock Number: 000664) were purchased from Jackson Labs and fed for 4-10 months with a 0.2% cuprizone chow (provided by Research Diets, Product # D10020701R, Description AIN-76A Rodent Diet with 0.2% cuprizone) using cuprizone purchased from Sigma (Cat #14690-100G). Chow was provided ad libitum, and refreshed every 4 days to ensure stability of the cuprizone. Mice were maintained on this diet for 4-10 months before initiation of the experiments.
1) 24 hours prior to the start of dosing, 6 to 10 mice were switched from cuprizone chow to normal chow (Picolab rodent diet 20 EXT IRR 5053, irradiated) without added cuprizone. These mice were maintained on normal chow throughout the course of dosing.
2) 6 to 10 mice per group were randomized into new cages such that mice that were housed in one cage during the cuprizone diet were not housed together in one dose group during the study.
3) Mice were dosed with compound in one of two regimens: Regimen A: mice were dosed QD or BID for 14 days via oral gavage. Regimen B: mice were dosed QD or BID for 14 days via IP injection. However, other dosing schedules and/or routes of administration may also be used.
4) On the last day of dosing, dried blood spots were collected at multiple time points following the last dose. Often this was 30 minutes, 2, 6 and 24 hours following the final dose on day 14 via the tail vein.
Perfusion and Sectioning:
1) The day after the last day of dosing, mice were transcardially perfused with 12 ml of PBS (Sigma, P4417) followed by 20 ml of 3.2% paraformaldehyde in PBS (Electron Microscopy Sciences #15714-S). The brains were removed via standard dissection techniques and each was postfixed in 3.2% paraformaldehyde (20 ml) for 24-48 hours at room temperature in sealed scintillation vials.
2) Serial 50 micron sections were collected through the anterior posterior extent of the brain, from just behind the olfactory bulb, through visual cortex using a vibrating microtome, the V-STAR (described in International Publication No. WO 2013/012799 and U.S. Pat. No. 8,967,024 both of which are incorporated herein by reference in their entirety). Sections were collected in phosphate buffered saline (PBS). Vibratome speed was set to 1.1 mm/s and amplitude was set to 0.8 mm.
3) A series of every 24th section was removed for staining yielding 5 sections per brain.
1) Tissue sections were stained using an automated system for processing blots (hereinafter the “blotinator”) (described in WO2011/087646 and U.S. Pat. Nos. 8,337,754 and 8,679,406 each of which is incorporated herein by reference in its entirety). Brain sections were placed in the blotinator plate and bathed in PBS. The blotinator applied primary antibodies (MOG and MBP together) and Hoechst nuclear stain for 12 hours at room temperature with constant shaking.
The following stains were diluted in blocking buffer (described below):
Hoechst nuclear stain (0.5 mg/ml)(bisBenzimide H 33342 trihydrochloride Sigma #33342).
Myelin basic Protein (MBP) antibody (Abcam Cat # ab7349) was diluted at a 1:750 ratio in blocking buffer).
Myelin Oligodendrocyte Glycoprotein (MOG) (R&D systems Cat # AF2439) was diluted at a 1:250 ratio in blocking buffer.
Antibodies were diluted in blocking buffer, which consisted of 0.3% Triton X-100 (Sigma Cat #234729), 0.02% Sodium Azide (Sigma Cat # S2002) and 8% fetal bovine serum in PBS (Sigma Cat # F2442).
2) The blotinator washed the samples 4 times for 5 minutes each with a wash buffer (0.2% Triton X-100 in PBS).
3) The blotinator applied secondary antibodies diluted in blocking buffer and incubated them for 2 hours with constant shaking.
Alexa 488 donkey anti-rat secondary (Life technologies Cat # A-21208) was diluted at 1:1000 in blocking buffer. […]

[3] = read-out: Fold myelin pixels above background, 1.0 μM
[4] = read-out: Fold myelin pixels above background, 10.0 μM
[5] = read-out: Fold myelin pixels above background

Row | Compound | fold induction at 1 µM [1, 3] | fold induction at 10 µM [1, 4] | effect measured as new myelin generated in response to compound treatment compared to control with no added compound [2] | effect (new myelin generated compared to control) ([2]; 60 mpk) | effect (new myelin generated compared to control) ([2]; 100 mpk) | effect (new myelin generated compared to control) ([2]; 30 mpk) | effect (new myelin generated compared to control) ([2]; 90 mpk) | effect (new myelin generated compared to control) ([2]; 10 mpk) | effect (new myelin generated compared to control) ([2]; 25 mpk) | effect (new myelin generated compared to control) ([2]; 50 mpk) | effect (new myelin generated compared to control) ([2]; 20 mpk) | effect (new myelin generated compared to control) ([2]; 40 mpk) | fold induction at 1 µM [1, 5] | fold induction at 10 µM [1, 5] | effect (new myelin generated compared to control) ([2]; 8 mpk)
1 | Cc1cc(Nc2ncn(-c3cnccn3)n2)cc(N2CCN(C3COC3)CC2)c1 [Compound 195, N-[3-methyl-5-[4-(oxetan-3-yl)piperazin-1-yl]phenyl]-1-pyrazin-2-yl-1,2,4-triazol-3-amine] | 100 to 1000 | 100 to 1000 | positive effect | positive effect | positive effect | – | – | – | – | – | – | – | – | – | –
2 | Cc1cc(Nc2ncn(-c3cc(F)cc(F)c3)n2)cc(N2CCN(C3(C)COC3)CC2)c1 [Compound 215, 1-(3,5-difluorophenyl)-N-[3-methyl-5-[4-(3-methyloxetan-3-yl)piperazin-1-yl]phenyl]-1,2,4-triazol-3-amine] | 10 to 100 | 10 to 100 | positive effect | – | – | positive effect | positive effect | – | – | – | – | – | – | – | –
3 | Cc1cc(Nc2ncn(-c3ccccc3)n2)cc(N2CCN(C)CC2)c1 [Compound 247, N-[3-methyl-5-(4-methylpiperazin-1-yl)phenyl]-1-phenyl-1,2,4-triazol-3-amine] | 100 to 1000 | ≤ 1 | positive effect | – | – | – | – | positive effect | positive effect | positive effect | – | – | – | – | –
4 | Cc1cc(Nc2ncn(-c3cc(F)cc(F)c3)n2)nc(N2CCN(C3COC3)CC2)c1 [Compound 331, N-[1-(3,5-difluorophenyl)-1,2,4-triazol-3-yl]-4-methyl-6-[4-(oxetan-3-yl)piperazin-1-yl]pyridin-2-amine] | 1 to 10 | 10 to 100 | positive effect | – | – | positive effect | – | – | – | – | positive effect | positive effect | – | – | –
5 | Cc1cc(Nc2ncn(-c3cccc(F)c3)n2)cc(N2CCN(C3COC3)CC2)c1 [Compound 406, 1-(3-fluorophenyl)-N-[3-methyl-5-[4-(oxetan-3-yl)piperazin-1-yl]phenyl]-1,2,4-triazol-3-amine] | – | – | positive effect | – | – | – | – | – | positive effect | positive effect | – | – | 1000 to 10000 | ≤ 1 | –
6 | Cc1cc(Nc2ncn(-c3cc(F)cc(F)c3)n2)cc(N2CC(N3CCOCC3)C2)c1 [Compound 485, 1-(3,5-difluorophenyl)-N-[3-methyl-5-(3-morpholinoazetidin-1-yl)phenyl]-1,2,4-triazol-3-amine] | – | – | positive effect | – | – | positive effect | – | – | – | – | positive effect | – | 10 to 100 | 1 to 10 | –
7 | Fc1cc(F)cc(-n2cnc(Nc3cc(C(F)F)cc(N4CCN(C5COC5)CC4)n3)n2)c1 [Compound 512, 4-(difluoromethyl)-N-[1-(3,5-difluorophenyl)-1,2,4-triazol-3-yl]-6-[4-(oxetan-3-yl)piperazin-1-yl]pyridin-2-amine] | – | – | positive effect | – | – | – | – | – | – | positive effect | – | – | 100 to 1000 | 100 to 1000 | –
8 | Fc1ccc(-n2cnc(Nc3cc(C(F)F)cc(N4CCN(C5COC5)CC4)n3)n2)cc1F [Compound 524, 4-(difluoromethyl)-N-[1-(3,4-difluorophenyl)-1,2,4-triazol-3-yl]-6-[4-(oxetan-3-yl)piperazin-1-yl]pyridin-2-amine] | – | – | positive effect | – | – | positive effect | – | positive effect | – | – | positive effect | – | 100 to 1000 | 100 to 1000 | –
9 | Cc1cc(Nc2ncn(-c3cc(F)cc(F)c3)n2)c(F)c(N2CCN(C3COC3)CC2)c1 [Compound 691, 1-(3,5-Difluorophenyl)-N-(2-fluoro-5-methyl-3-(4-(oxetan-3-yl)piperazin-1-yl)phenyl)-1H-1,2,4-triazol-3-amine] | – | – | positive effect | – | – | – | – | positive effect | – | – | positive effect | – | 10 to 100 | 10 to 100 | positive effect
